Consider one molecule from ChEMBL document CHEMBL1123652, “Optimization and in vivo evaluations of a series of small, potent, and specific renin inhibitors containing a novel Leu-Val replacement” (J Med Chem, 1987).

Usually inhibition stands for the change of the read-out against control, counted positive when it falls. By pIC50 is commonly meant −log10 of the IC50, conventionally taken in molar units.

The nature of data set [1]: Percent of compound found in 24 hr urine samples after, intravenous administration. It is filed as ADME. The conditions noted are these: read-out: Activity.
Data set [2] relates to Rattus norvegicus. Nature of the data set: Percent radioactivity in excreta of rats 24 h following intravenous administration in feces. It is filed as ADME, organism-based. The following applies: in vivo.
Data set [3] has as its system Monkey. Nature of the data set: Mean blood pressure was measured in salt depleted male cynomolgus monkey at dose of 10 mg/kg intravenously. The following applies: route intravenous. In kind it is functional, Cercopithecidae.
For data set [4], the system named is Rattus norvegicus. Nature of the data set: Percent radioactivity in excreta of rats 24 hr following intraduodenal administration of the compound in urine. In kind it is ADME, organism-based. The conditions noted are these: in vivo, other.
Data set [5] has as its system Monkey. Nature of the data set: Inhibition of Plasma renin activity was observed in male cynomolgus monkey at dose of 10 mg/kg. It is filed as functional, Cercopithecidae.
The nature of data set [6]: Percent of [3H]- histidine found in 24 hr urine samples after intravenous administration. It is filed as ADME.
Data set [7] has as its system Rattus norvegicus. Nature of the data set: Percent radioactivity in excreta of rats 24 hr following intravenous administration in urine. It is filed as ADME, organism-based. The following applies: in vivo.
Data set [8] can be described thus: Percent of radiolabel found in 24 hr urine samples after intraduodenal administration. In kind it is ADME. The following applies: other.
Data set [9] concerns Rattus norvegicus. As to the kind of experiment: Percent radioactivity in excreta of rats 24 hr following intraduodenal administration of the compound in feces. It is filed as ADME, organism-based. The conditions noted are these: in vivo, other.
A short description of data set [10]: Percent of compound found in 24 hr urine samples after intraduodenal administration. In kind it is ADME. The following applies: read-out: Activity.
Data set [11] in a line: Percent of [3H]- histidine found in 24 hr urine samples after intraduodenal administration. It is filed as ADME. The following applies: other.
For another data set, the target named is T1, Cathepsin D (Bos taurus) (UniProt P80209).
T1 sequence (whole entry): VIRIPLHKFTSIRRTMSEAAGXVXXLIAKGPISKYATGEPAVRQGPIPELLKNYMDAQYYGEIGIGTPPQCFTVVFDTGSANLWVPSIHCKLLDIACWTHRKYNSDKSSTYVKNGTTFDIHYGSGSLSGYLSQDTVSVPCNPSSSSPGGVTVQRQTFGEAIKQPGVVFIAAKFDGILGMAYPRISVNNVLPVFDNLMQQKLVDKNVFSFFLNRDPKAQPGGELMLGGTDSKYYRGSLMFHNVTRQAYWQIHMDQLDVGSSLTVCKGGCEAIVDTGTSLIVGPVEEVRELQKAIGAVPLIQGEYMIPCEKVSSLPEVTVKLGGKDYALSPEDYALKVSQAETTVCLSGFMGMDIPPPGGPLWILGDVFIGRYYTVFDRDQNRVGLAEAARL
Nature of the data set: Evaluated for the percentage of inhibition of bovine cathepsin D at E-5M concentration.

Data set [12] relates to Monkey. Nature of the data set: Heart rate determined at dosage of 1.0 mg/kg in male cynomolgus monkey. It is filed as functional, Cercopithecidae.
Data set [13] is described as follows: Percent of radiolabel found in 24 hr urine samples after intravenous administration. In kind it is ADME.
For data set [14], the system named is Monkey. Nature of the data set: Inhibition of Plasma renin activity was observed in male cynomolgus monkey at dose of 1.0 mg/kg. In kind it is functional, Cercopithecidae.
In the next data set the target is Pepsin A (Sus scrofa) (UniProt P00791). As to the kind of experiment: Evaluated for the percentage of inhibition of porcine pepsin at E-5M concentration.
Data set [15] has as its system Monkey. Nature of the data set: Heart rate determined at dosage of 10 mg/kg in male cynomolgus monkey. In kind it is functional, Cercopithecidae.
The subject of data set [16] is Monkey. As to the kind of experiment: Mean blood pressure was measured in salt depleted male cynomolgus monkey at dose of 1.0 mg/kg intravenously. In kind it is functional, Cercopithecidae. The conditions noted are these: route intravenous.
The next data set deals with T2, Renin (Homo sapiens, UniProt P00797).
T2 sequence (P00797 whole entry): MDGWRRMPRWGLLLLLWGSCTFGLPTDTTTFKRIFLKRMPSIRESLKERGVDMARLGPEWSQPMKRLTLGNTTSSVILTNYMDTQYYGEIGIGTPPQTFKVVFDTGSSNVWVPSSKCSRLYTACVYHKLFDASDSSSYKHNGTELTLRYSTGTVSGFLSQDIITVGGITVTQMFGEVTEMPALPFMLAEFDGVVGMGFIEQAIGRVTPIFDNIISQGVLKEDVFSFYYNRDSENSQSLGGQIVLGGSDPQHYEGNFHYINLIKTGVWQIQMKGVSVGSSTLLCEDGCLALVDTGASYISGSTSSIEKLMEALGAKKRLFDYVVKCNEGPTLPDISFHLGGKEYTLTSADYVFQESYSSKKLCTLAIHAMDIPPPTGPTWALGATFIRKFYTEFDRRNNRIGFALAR
Nature of the data set: Evaluated in vitro for inhibitory potency against renin.

pIC50: −log10 of the molar value.

Pepsin A (Sus scrofa), sequence (P00791 60-385 limits assumed): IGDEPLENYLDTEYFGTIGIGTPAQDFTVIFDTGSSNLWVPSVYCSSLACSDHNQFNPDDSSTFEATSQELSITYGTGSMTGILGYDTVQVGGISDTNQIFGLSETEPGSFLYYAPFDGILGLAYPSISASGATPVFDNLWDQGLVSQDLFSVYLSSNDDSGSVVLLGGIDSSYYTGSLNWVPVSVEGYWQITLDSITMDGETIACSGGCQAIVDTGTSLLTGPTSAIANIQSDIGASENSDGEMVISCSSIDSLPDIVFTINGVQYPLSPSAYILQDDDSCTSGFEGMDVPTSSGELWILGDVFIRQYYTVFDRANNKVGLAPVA

For the molecule `CC(C)(C)OC(=O)N[C@@H](Cc1ccccc1)C(=O)N[C@@H](Cc1c[nH]cn1)C(=O)N[C@@H](CC1CCCCC1)[C@@H](O)CS(=O)(=O)C1CCCCC1`, the results for the dose excreted at 24 h in data set [1] and in data set [10] were 70% and 30%, respectively. Further, the Activity worked out at 34.5% with Rattus norvegicus [2]; 0.9% with Rattus norvegicus [4]; 107.7 ng/mL/h in the data set with Monkey [5]; 30% in data set [6]; 5% in the data set on Rattus norvegicus [7]; 1% in data set [8]. Also, the Activity in the data set with Rattus norvegicus [9] was 26.6%; in data set [11] it was 70%; in data set [13], 5%; in the data set on Monkey [14], 35.3 ng/mL/h. The Mean blood pressure in the data set on Monkey [3] worked out at 73 mmHg; in the data set on Monkey [16], 68 mmHg. Further, the inhibition on Cathepsin D (Bos taurus) and on Pepsin A (Sus scrofa) was 0% in each case. Further, the Heart rate is recorded as 140 beats min-1 with Monkey [12] and 197 beats min-1 in the data set with Monkey [15]. The molecule further gave a pIC50 against Renin of 8.60.
